Experimental data from PMC5218480 (PLoS ONE, 2017).

Tested on: MV-4-11 cells
Assay: Gene expression microarray analysis (Affymetrix PrimeView) and GSEA
Format: cell-based, human
Set-up: RFU PODN (11730768_x_at) / Fold change /veh PODN (11730768_x_at) / RFU LINC00158 (11744669_a_at) / Fold change /veh LINC00158 (11744669_a_at) / RFU DUSP10 (11751237_a_at) / Fold change /veh DUSP10 (11751237_a_at) / RFU ID3 (11757404_x_at) / Fold change /veh ID3 (11757404_x_at) / RFU PLEKHG5 (11737974_s_at) / Fold change /veh PLEKHG5 (11737974_s_at) / RFU LRRC4B (11730491_at) / Fold change /veh LRRC4B (11730491_at) / RFU GIMAP4 (11747438_a_at) / Fold change /veh GIMAP4 (11747438_a_at) / RFU KRT8 (11758183_x_at) / Fold change /veh KRT8 (11758183_x_at) / RFU CNN1 (11734310_a_at) / Fold change /veh CNN1 (11734310_a_at) / RFU VPS37D (11726825_at) / Fold change /veh VPS37D (11726825_at) / RFU C10orf10 (11716522_x_at) / Fold change /veh C10orf10 (11716522_x_at) / RFU KIR2DL2 /// KIR2DL4 /// KIR2DL5A /// KIR2DL5B /// KIR2DS1 /// KIR2DS2 /// KIR2DS3 /// KIR2DS4 /// KIR3DL3 /// KIR3DL3 /// KIR3DS1 (11738374_at) / Fold change /veh KIR2DL2 /// KIR2DL4 /// KIR2DL5A /// KIR2DL5B /// KIR2DS1 /// KIR2DS2 /// KIR2DS3 /// KIR2DS4 /// KIR3DL3 /// KIR3DL3 /// KIR3DS1 (11738374_at) / RFU C1QL1 (11718748_at) / Fold change /veh C1QL1 (11718748_at) / RFU TMPRSS4 (11747572_a_at) / Fold change /veh TMPRSS4 (11747572_a_at) / RFU HAMP (11756126_x_at) / Fold change /veh HAMP (11756126_x_at) / RFU RNFT2 (11725882_a_at) / Fold change /veh RNFT2 (11725882_a_at) / RFU NR4A2 (11747474_a_at) / Fold change /veh NR4A2 (11747474_a_at) / RFU ABCC12 (11746883_a_at) / Fold change /veh ABCC12 (11746883_a_at) / RFU TMEM136 (11760407_x_at) / Fold change /veh TMEM136 (11760407_x_at) / RFU CLDN22 /// WWC2 (11732394_at) / Fold change /veh CLDN22 /// WWC2 (11732394_at) / RFU HLA-DPB1 (11760878_x_at) / Fold change /veh HLA-DPB1 (11760878_x_at) / RFU SPINT1 (11716480_a_at) / Fold change /veh SPINT1 (11716480_a_at) / RFU GAP43 (11754022_s_at) / Fold change /veh GAP43 (11754022_s_at) / RFU A4GNT (11735810_at) / Fold change /veh A4GNT (11735810_at) / RFU PRB3 (11715151_x_at) / Fold change /veh PRB3 (11715151_x_at) / RFU TUBB4B (11761932_at) / Fold change /veh TUBB4B (11761932_at) / RFU CAPN14 (11732068_a_at) / Fold change /veh CAPN14 (11732068_a_at) / RFU TMCC2 (11721928_a_at) / Fold change /veh TMCC2 (11721928_a_at) / RFU IRGQ (11745062_a_at) / Fold change /veh IRGQ (11745062_a_at) / RFU FAM174B (11720279_a_at) / Fold change /veh FAM174B (11720279_a_at) / RFU TMPRSS4 (11748680_a_at) / Fold change /veh TMPRSS4 (11748680_a_at) / RFU FAM212B (11763350_a_at) / Fold change /veh FAM212B (11763350_a_at) / RFU PLEKHG5 (11743358_a_at) / Fold change /veh PLEKHG5 (11743358_a_at) / RFU ZSCAN30 (11745921_a_at) / Fold change /veh ZSCAN30 (11745921_a_at) / RFU CMKLR1 (11741424_a_at) / Fold change /veh CMKLR1 (11741424_a_at) / RFU LOC101060620 /// MAPK8IP1 (11723275_at) / Fold change /veh LOC101060620 /// MAPK8IP1 (11723275_at) / RFU SPTSSB (11747773_x_at) / Fold change /veh SPTSSB (11747773_x_at) / RFU PRSS12 (11739890_at) / Fold change /veh PRSS12 (11739890_at) / RFU BIN1 (11741810_x_at) / Fold change /veh BIN1 (11741810_x_at) / RFU WNT11 (11732464_a_at) / Fold change /veh WNT11 (11732464_a_at) / RFU C10orf10 (11716521_a_at) / Fold change /veh C10orf10 (11716521_a_at) / RFU C5orf56 (11738089_at) / Fold change /veh C5orf56 (11738089_at) / RFU CYB561 (11721691_x_at) / Fold change /veh CYB561 (11721691_x_at) / RFU ANKRD19P (11752326_a_at) / Fold change /veh ANKRD19P (11752326_a_at) / RFU OR2T12 /// OR2T33 /// OR2T8 (11738714_s_at) / Fold change /veh OR2T12 /// OR2T33 /// OR2T8 (11738714_s_at) / RFU VCAN (11748164_a_at) / Fold change /veh VCAN (11748164_a_at) / RFU JSRP1 (11732532_at) / Fold change /veh JSRP1 (11732532_at) / RFU KRTAP10-11 (11738290_x_at) / Fold change /veh KRTAP10-11 (11738290_x_at) / RFU MYO3A (11730013_a_at) / Fold change /veh MYO3A (11730013_a_at) / RFU EBF3 (11725865_a_at) / Fold change /veh EBF3 (11725865_a_at) / RFU CAMK2N1 (11719241_x_at) / Fold change /veh CAMK2N1 (11719241_x_at) / RFU C5orf56 (11738088_a_at) / Fold change /veh C5orf56 (11738088_a_at) / RFU OLFML3 (11715873_a_at) / Fold change /veh OLFML3 (11715873_a_at) / RFU LOC100653217 /// NTM (11731650_a_at) / Fold change /veh LOC100653217 /// NTM (11731650_a_at) / RFU MAPK11 (11762145_a_at) / Fold change /veh MAPK11 (11762145_a_at) / RFU FIZ1 (11724087_x_at) / Fold change /veh FIZ1 (11724087_x_at) / RFU OASL (11726364_x_at) / Fold change /veh OASL (11726364_x_at) / RFU SOX15 (11748057_x_at) / Fold change /veh SOX15 (11748057_x_at) / RFU CD79A (11719716_a_at) / Fold change /veh CD79A (11719716_a_at) / RFU HIST1H1D (11736915_at) / Fold change /veh HIST1H1D (11736915_at) / RFU CASKIN2 (11723855_a_at) / Fold change /veh CASKIN2 (11723855_a_at) / RFU LOC730098 (11760151_x_at) / Fold change /veh LOC730098 (11760151_x_at) / RFU OR4N2 (11742367_at) / Fold change /veh OR4N2 (11742367_at) / RFU PRRT2 (11749266_a_at) / Fold change /veh PRRT2 (11749266_a_at) / RFU SNX32 (11753110_a_at) / Fold change /veh SNX32 (11753110_a_at) / RFU CDHR5 (11726645_a_at) / Fold change /veh CDHR5 (11726645_a_at) / RFU RCAN1 (11760418_a_at) / Fold change /veh RCAN1 (11760418_a_at) / RFU FAM167A (11723789_a_at) / Fold change /veh FAM167A (11723789_a_at) / RFU FAM26E (11764081_at) / Fold change /veh FAM26E (11764081_at) / RFU ISYNA1 (11749810_s_at) / Fold change /veh ISYNA1 (11749810_s_at) / RFU ACY1 (11761880_at) / Fold change /veh ACY1 (11761880_at) / RFU 11764098_at / Fold change /veh 11764098_at / RFU SAMD14 (11745864_x_at) / Fold change /veh SAMD14 (11745864_x_at) / RFU NPB (11741838_a_at) / Fold change /veh NPB (11741838_a_at) / RFU TMPRSS6 (11731388_a_at) / Fold change /veh TMPRSS6 (11731388_a_at) / RFU KRTAP10-2 (11738614_at) / Fold change /veh KRTAP10-2 (11738614_at) / RFU ARHGAP8 /// PRR5-ARHGAP8 (11727945_x_at) / Fold change /veh ARHGAP8 /// PRR5-ARHGAP8 (11727945_x_at) / RFU KRTAP5-7 /// NADSYN1 (11734609_at) / Fold change /veh KRTAP5-7 /// NADSYN1 (11734609_at) / RFU RASL12 (11751679_a_at) / Fold change /veh RASL12 (11751679_a_at) / RFU CDKN2B (11736163_a_at) / Fold change /veh CDKN2B (11736163_a_at) / RFU PRF1 (11729649_at) / Fold change /veh PRF1 (11729649_at) / RFU, ZNF638 /// ZNF638-IT1 / Fold change vs veh, ZNF638 /// ZNF638-IT1 / RFU, PANK3 / Fold change vs veh, PANK3 / RFU, SH3YL1 / Fold change vs veh, SH3YL1 / RFU, ZEB2 / Fold change vs veh, ZEB2 / RFU, NRIP1 / Fold change vs veh, NRIP1 / RFU, PTTG1IP / Fold change vs veh, PTTG1IP / RFU, CAPN2 / Fold change vs veh, CAPN2 / RFU, MED14 / Fold change vs veh, MED14 / RFU, SNORA58 / Fold change vs veh, SNORA58 / RFU, C1orf63 / Fold change vs veh, C1orf63 / RFU, LRRFIP1 / Fold change vs veh, LRRFIP1 / RFU, NDUFAF7 / Fold change vs veh, NDUFAF7 / RFU, SLC12A2 / Fold change vs veh, SLC12A2 / RFU, IBTK / Fold change vs veh, IBTK / RFU, ESF1 / Fold change vs veh, ESF1 / Fold change vs veh, TMEM50B / RFU, TAOK1 / Fold change vs veh, TAOK1 / RFU, ACBD3 / Fold change vs veh, ACBD3 / RFU, TMA16 / Fold change vs veh, TMA16 / RFU, RWDD3 / Fold change vs veh, RWDD3 / RFU, BCAT1 / Fold change vs veh, BCAT1 / RFU, EDEM3 / Fold change vs veh, EDEM3 / RFU, TMEM33 / Fold change vs veh, TMEM33 / RFU, WDR75 / Fold change vs veh, WDR75 / RFU, AHCTF1 / Fold change vs veh, AHCTF1 / RFU, TFRC / Fold change vs veh, TFRC / RFU, ZDHHC17 / Fold change vs veh, ZDHHC17 / RFU, NOM1 / Fold change vs veh, NOM1 / RFU, ARL8B / Fold change vs veh, ARL8B / RFU, ZBTB11 / Fold change vs veh, ZBTB11 / RFU, TAMM41 / Fold change vs veh, TAMM41 / RFU, KIAA1704 /// LOC100996395 / Fold change vs veh, KIAA1704 /// LOC100996395 / RFU, ING1 / Fold change vs veh, ING1 / RFU, TRMT61B / Fold change vs veh, TRMT61B / RFU, FUBP3 / Fold change vs veh, FUBP3 / RFU, TP53 / Fold change vs veh, TP53 / RFU, TNKS2 / Fold change vs veh, TNKS2 / RFU, ZFP14 / Fold change vs veh, ZFP14 / RFU, ACTR2 / Fold change vs veh, ACTR2 / RFU, PPP3R1 / Fold change vs veh, PPP3R1 / RFU, PIK3R1 / Fold change vs veh, PIK3R1 / RFU, HNRNPA1 / Fold change vs veh, HNRNPA1 / RFU, RNF170 / Fold change vs veh, RNF170 / RFU, ZNF28 / Fold change vs veh, ZNF28 / RFU, RNGTT / Fold change vs veh, RNGTT / RFU, OGT / Fold change vs veh, OGT / RFU, BRD1 / Fold change vs veh, BRD1 / RFU, MARS / Fold change vs veh, MARS / RFU, ZNF655 / Fold change vs veh, ZNF655 / RFU, FAHD1 / Fold change vs veh, FAHD1 / RFU, BDP1 / Fold change vs veh, BDP1 / RFU, LRRCC1 / Fold change vs veh, LRRCC1 / RFU, ARID1A / Fold change vs veh, ARID1A / RFU, ZNF146 / Fold change vs veh, ZNF146 / RFU, ZNF330 / Fold change vs veh, ZNF330 / RFU, GPN3 / Fold change vs veh, GPN3 / RFU, C9orf123 / Fold change vs veh, C9orf123 / RFU, N4BP2L2 / Fold change vs veh, N4BP2L2 / RFU, ARFIP1 / Fold change vs veh, ARFIP1 / RFU, FAM179B / Fold change vs veh, FAM179B / RFU, BCL10 / Fold change vs veh, BCL10 / RFU, UHRF1BP1L / Fold change vs veh, UHRF1BP1L / RFU, BET1 / Fold change vs veh, BET1 / RFU, CNOT2 / Fold change vs veh, CNOT2 / RFU, ZNF268 / Fold change vs veh, ZNF268 / Fold change vs veh, ZNF507 / RFU, DGCR2 / Fold change vs veh, DGCR2 / RFU, WDSUB1 / Fold change vs veh, WDSUB1 / Fold change vs veh, HSP90B1 /// MIR3652 / RFU, ADSS / Fold change vs veh, ADSS / RFU, GK / Fold change vs veh, GK / RFU, ZNF148 / Fold change vs veh, ZNF148 / RFU, TAF9 / Fold change vs veh, TAF9 / RFU, SLC1A5 / Fold change vs veh, SLC1A5 / RFU, SLMO2 / Fold change vs veh, SLMO2 / RFU, ABCC4 / Fold change vs veh, ABCC4 / RFU, LOC101060439 /// RAP1B / Fold change vs veh, LOC101060439 /// RAP1B / RFU, RFX7 / Fold change vs veh, RFX7 / RFU, GTPBP10 / Fold change vs veh, GTPBP10 / RFU, CNEP1R1 / Fold change vs veh, CNEP1R1 / RFU, BIVM-ERCC5 /// ERCC5 / Fold change vs veh, BIVM-ERCC5 /// ERCC5 / RFU, ILF3 / Fold change vs veh, ILF3 / RFU 11762660_at / Fold change /veh 11762660_at / RFU VCAN (11757783_s_at) / Fold change /veh VCAN (11757783_s_at) / RFU DDX43 (11728927_at) / Fold change /veh DDX43 (11728927_at) / RFU KRT8 (11758188_x_at) / Fold change /veh KRT8 (11758188_x_at) / RFU NKD1 (11759106_at) / Fold change /veh NKD1 (11759106_at) / RFU SRD5A1 (11742802_a_at) / Fold change /veh SRD5A1 (11742802_a_at) / RFU TPSAB1 /// TPSB2 (11721975_s_at) / Fold change /veh TPSAB1 /// TPSB2 (11721975_s_at) / RFU GSTM3 (11746129_a_at) / Fold change /veh GSTM3 (11746129_a_at) / RFU IL23R (11737362_x_at) / Fold change /veh IL23R (11737362_x_at) / RFU TMEM51 (11727254_a_at) / Fold change /veh TMEM51 (11727254_a_at) / RFU PIWIL2 (11732686_x_at) / Fold change /veh PIWIL2 (11732686_x_at) / RFU ORM1 (11744905_x_at) / Fold change /veh ORM1 (11744905_x_at) / RFU CCDC152 (11743942_at) / Fold change /veh CCDC152 (11743942_at) / RFU ECM1 (11717891_a_at) / Fold change /veh ECM1 (11717891_a_at) / RFU IL23R (11748794_a_at) / Fold change /veh IL23R (11748794_a_at) / RFU TNFAIP8L3 (11732012_x_at) / Fold change /veh TNFAIP8L3 (11732012_x_at) / RFU MBOAT4 (11741988_at) / Fold change /veh MBOAT4 (11741988_at) / RFU 11764193_at / Fold change /veh 11764193_at / RFU TMEM53 (11763286_at) / Fold change /veh TMEM53 (11763286_at) / RFU MAGEB2 (11727129_at) / Fold change /veh MAGEB2 (11727129_at) / RFU TMEM200A (11744735_a_at) / Fold change /veh TMEM200A (11744735_a_at) / RFU CCDC152 (11751479_a_at) / Fold change /veh CCDC152 (11751479_a_at) / RFU FAM211A (11726209_a_at) / Fold change /veh FAM211A (11726209_a_at) / RFU RGS16 (11746705_a_at) / Fold change /veh RGS16 (11746705_a_at) / RFU VCAN (11755009_s_at) / Fold change /veh VCAN (11755009_s_at) / RFU RHOB (11743442_s_at) / Fold change /veh RHOB (11743442_s_at) / RFU RGS16 (11720943_a_at) / Fold change /veh RGS16 (11720943_a_at) / RFU RGS16 (11720944_at) / Fold change /veh RGS16 (11720944_at) / RFU, VPS4B / Fold change vs veh, VPS4B / RFU, CREB1 / Fold change vs veh, CREB1 / RFU, DNAJC13 / Fold change vs veh, DNAJC13 / RFU, GNAQ / Fold change vs veh, GNAQ / RFU, CDK5R1 / Fold change vs veh, CDK5R1 / RFU, ZRANB3 / Fold change vs veh, ZRANB3 / RFU, CUL4A / Fold change vs veh, CUL4A / RFU, CCNY / Fold change vs veh, CCNY / RFU, UFL1 / Fold change vs veh, UFL1 / RFU, COG3 / Fold change vs veh, COG3 / RFU, DIAPH2 / Fold change vs veh, DIAPH2 / RFU, SKA2 / Fold change vs veh, SKA2 / RFU, AFF3 / Fold change vs veh, AFF3 / RFU, LMF1 / Fold change vs veh, LMF1 / RFU, IPO11 / Fold change vs veh, IPO11 / RFU, DFFB / Fold change vs veh, DFFB / RFU, FOXP1 / Fold change vs veh, FOXP1 / RFU, CARD8 / Fold change vs veh, CARD8 / RFU, STRN3 / Fold change vs veh, STRN3 / RFU, ADK / Fold change vs veh, ADK / RFU, RASSF2 / Fold change vs veh, RASSF2 / RFU, WIPF1 / Fold change vs veh, WIPF1 / RFU, LARP1B / Fold change vs veh, LARP1B / RFU, RASA1 / Fold change vs veh, RASA1 / RFU, RB1 / Fold change vs veh, RB1 / RFU, PPFIA1 / Fold change vs veh, PPFIA1 / RFU, MAT2A / Fold change vs veh, MAT2A / RFU, CCT5 / Fold change vs veh, CCT5 / RFU, WDR92 / Fold change vs veh, WDR92 / RFU, CUX1 / Fold change vs veh, CUX1 / RFU, TTC7A / Fold change vs veh, TTC7A / RFU, TMEM135 / Fold change vs veh, TMEM135 / RFU, DEPTOR / Fold change vs veh, DEPTOR / RFU, CPM / Fold change vs veh, CPM / RFU, DNAJB6 / Fold change vs veh, DNAJB6 / RFU, CACNA2D3 / Fold change vs veh, CACNA2D3 / RFU, DTX4 / Fold change vs veh, DTX4 / RFU, TFCP2 / Fold change vs veh, TFCP2 / RFU, GMCL1 /// GMCL1P1 / Fold change vs veh, GMCL1 /// GMCL1P1 / RFU, AEBP2 / Fold change vs veh, AEBP2 / RFU, SNHG1 /// SNORD22 /// SNORD25 /// SNORD26 /// SNORD27 /// SNORD28 /// SNORD29 /// SNORD31 / Fold change vs veh, SNHG1 /// SNORD22 /// SNORD25 /// SNORD26 /// SNORD27 /// SNORD28 /// SNORD29 /// SNORD31 / Fold change (Aza/veh), C12orf56 (ProbeSet 11735607_a_at) / Fold change (ACY-1035/veh), C12orf56 (ProbeSet 11735607_a_at) / Fold change (Aza/veh), FGFR1OP (ProbeSet 11751329_s_at) / Fold change (ACY-1035/veh), FGFR1OP (ProbeSet 11751329_s_at) / Fold change (Aza/veh), VPS36 (ProbeSet 11739960_a_at) / Fold change (ACY-1035/veh), VPS36 (ProbeSet 11739960_a_at) / RFU SYPL1 (11715823_x_at) / Fold change /veh SYPL1 (11715823_x_at) / RFU IGFBP7 (11715501_s_at) / Fold change /veh IGFBP7 (11715501_s_at) / RFU REEP3 (11722064_at) / Fold change /veh REEP3 (11722064_at) / RFU IGLL1 (11728026_x_at) / Fold change /veh IGLL1 (11728026_x_at): dose or concentration left out as unconfirmed
Conditions: MV-4-11 cells, 48 hours

Nc1ccc(-c2cccs2)cc1NC(=O)c1ccc2c(c1)cc(C1CC1)n2CCN1CCOCC1 [ACY-1035]
Fold change /veh GIMAP4 (11747438_a_at): 1.02
